# According to PubChem BioAssay AID1745844 (Carcinogenic Potency Database (CPDB), 2022):
# Calls of active or inactive are those of the source. The rule behind the calls is not given here.
# Tested on: rodent lifetime carcinogenesis bioassay, tumor incidence TD50
# Assay: chronic cancer bioassays in animals – CPDB, compiled studies (AID 1745844)
# [1] = mouse, strain B6AKF1, females, oral dosing, site: any site (literature study), lesion: several types, types named in the paper, dosed 76 weeks, study length 76 weeks
# [2] = mouse, strain B6AKF1, females, oral dosing, site: liver, lesion: hepatoma, dosed 76 weeks, study length 76 weeks
# [3] = mouse, strain B6AKF1, females, oral dosing, site: lung, lesion: adenoma, dosed 76 weeks, study length 76 weeks
# [4] = mouse, strain B6AKF1, males, oral dosing, site: any site (literature study), lesion: several types, types named in the paper, dosed 76 weeks, study length 76 weeks
# [5] = mouse, strain B6AKF1, males, oral dosing, site: liver, lesion: hepatoma, dosed 76 weeks, study length 76 weeks
# [6] = mouse, strain B6AKF1, males, oral dosing, site: lung, lesion: adenoma, dosed 76 weeks, study length 76 weeks
# [7] = mouse, strain B6C3F1, females, oral dosing, site: liver, lesion: hepatoma, dosed 76 weeks, study length 76 weeks
# [8] = mouse, strain B6C3F1, males, oral dosing, site: any site (literature study), lesion: several types, types named in the paper, dosed 76 weeks, study length 76 weeks
# [9] = mouse, strain B6C3F1, males, oral dosing, site: liver, lesion: hepatoma, dosed 76 weeks, study length 76 weeks
# [10] = mouse, strain B6C3F1, males, oral dosing, site: lung, lesion: adenoma, dosed 76 weeks, study length 76 weeks
compound,measurement,setting,value
O=[N+]([O-])c1ccc2c(c1)Cc1ccccc1-2,TD50,"rat, strain Wistar, males, in feed, site: forestomach, lesion: several types, types named in the paper, dosed 47 weeks, study length 104 weeks",0.285 mg/kg/day
same,TD50,"rat, strain Wistar, males, in feed, site: forestomach, lesion: squamous-cell carcinoma, dosed 47 weeks, study length 104 weeks",1.12 mg/kg/day
same,TD50,"rat, strain Wistar, males, in feed, site: kidney, lesion: cortical carcinoma, dosed 47 weeks, study length 104 weeks",2.35 mg/kg/day
same,TD50,"rat, strain Wistar, males, in feed, site: kidney, lesion: several types, types named in the paper, dosed 47 weeks, study length 104 weeks",3 mg/kg/day
same,TD50,"rat, strain Wistar, males, in feed, site: liver, lesion: hepatocellular carcinoma, dosed 47 weeks, study length 104 weeks",2.1 mg/kg/day
CC(C)=NNc1nc(-c2ccc([N+](=O)[O-])o2)cs1,TD50,"rat, strain Holtzman albino (Sprague-Dawley derived), females, in feed, site: forestomach, lesion: squamous-cell papilloma, dosed 36 weeks, study length 54 weeks",11 mg/kg/day
same,TD50,"rat, strain Holtzman albino (Sprague-Dawley derived), females, in feed, site: forestomach, lesion: squamous-cell papilloma, dosed 44 weeks, study length 60 weeks",6.05 mg/kg/day
O=[N+]([O-])c1ccc(-c2nc(NCCO)c3ccccc3n2)s1,TD50,"rat, strain Sprague-Dawley, females, in feed, site: any site (literature study), lesion: several types, types named in the paper, dosed 46 weeks, study length 66 weeks",1.87 mg/kg/day
same,TD50,"rat, strain Sprague-Dawley, females, in feed, site: intestine, lesion: leiomyosarcoma, dosed 46 weeks, study length 66 weeks",3.84 mg/kg/day
same,TD50,"rat, strain Sprague-Dawley, females, in feed, site: liver, lesion: bile duct adenoma, dosed 46 weeks, study length 66 weeks",132 mg/kg/day
S=c1[nH]c2ccccc2s1,carcinogen call,[1],negative (inactive)
same,carcinogen call,[2],negative (inactive)
same,carcinogen call,[3],negative (inactive)
same,TD50,[4],105 mg/kg/day (inactive)
same,carcinogen call,[5],negative (inactive)
same,carcinogen call,[6],negative (inactive)
same,TD50,"mouse, strain B6C3F1, females, by gavage, site: liver, lesion: hepatocellular adenoma + hepatocellular carcinoma + neoplastic nodule, dosed 103 weeks, study length 104 weeks",2160 mg/kg/day
same,TD50,"mouse, strain B6C3F1, females, by gavage, site: liver, lesion: hepatocellular adenoma + hepatocellular carcinoma, dosed 103 weeks, study length 104 weeks",2160 mg/kg/day
same,TD50,"mouse, strain B6C3F1, females, oral dosing, site: any site (literature study), lesion: several types, types named in the paper, dosed 76 weeks, study length 76 weeks",283 mg/kg/day (inactive)
same,carcinogen call,[7],negative (inactive)
same,TD50,"mouse, strain B6C3F1, females, oral dosing, site: lung, lesion: adenoma, dosed 76 weeks, study length 76 weeks",283 mg/kg/day (inactive)
same,TD50,"mouse, strain B6C3F1, males, by gavage, site: any site (literature study), lesion: several types, types named in the paper, dosed 103 weeks, study length 104 weeks",3330 mg/kg/day (inactive)
same,TD50,"mouse, strain B6C3F1, males, by gavage, site: liver, lesion: hepatocellular adenoma + hepatocellular carcinoma + neoplastic nodule, dosed 103 weeks, study length 104 weeks",3700 mg/kg/day
same,TD50,[8],17 mg/kg/day (inactive)
same,TD50,[9],56.2 mg/kg/day (inactive)
same,TD50,[10],120 mg/kg/day (inactive)
same,TD50,"rat, strain Fischer 344, females, by gavage, site: adrenal medulla + pituitary gland, anterior, lesion: pheochromocytoma + adenoma, NOS, dosed 103 weeks, study length 104 weeks",247 mg/kg/day
same,TD50,"rat, strain Fischer 344, females, by gavage, site: adrenal medulla, lesion: pheochromocytoma, dosed 103 weeks, study length 104 weeks",805 mg/kg/day
same,TD50,"rat, strain Fischer 344, females, by gavage, site: any site (literature study), lesion: several types, types named in the paper, dosed 103 weeks, study length 104 weeks",576 mg/kg/day
same,TD50,"rat, strain Fischer 344, females, by gavage, site: pituitary gland, anterior, lesion: adenoma, NOS, dosed 103 weeks, study length 104 weeks",343 mg/kg/day
same,TD50,"rat, strain Fischer 344, males, by gavage, site: adrenal medulla + multiple organs + pancreas + preputial gland, lesion: pheochromocytoma + pheochromocytoma, malignant + mononuclear-cell leukemia + acinar-cell adenoma + adenoma, NOS + carcinoma, NOS, dosed 103 weeks, study length 104 weeks",157 mg/kg/day
same,TD50,"rat, strain Fischer 344, males, by gavage, site: adrenal medulla, lesion: pheochromocytoma + pheochromocytoma, malignant, dosed 103 weeks, study length 104 weeks",394 mg/kg/day
same,TD50,"rat, strain Fischer 344, males, by gavage, site: any site (literature study), lesion: several types, types named in the paper, dosed 103 weeks, study length 104 weeks",136 mg/kg/day
same,TD50,"rat, strain Fischer 344, males, by gavage, site: multiple organs + tunica albuginea, lesion: mesothelioma, malignant + mesothelioma, NOS, dosed 103 weeks, study length 104 weeks",3200 mg/kg/day
same,TD50,"rat, strain Fischer 344, males, by gavage, site: multiple organs, lesion: mononuclear-cell leukemia, dosed 103 weeks, study length 104 weeks",401 mg/kg/day
same,TD50,"rat, strain Fischer 344, males, by gavage, site: pancreas, lesion: acinar-cell adenoma, dosed 103 weeks, study length 104 weeks",345 mg/kg/day
same,TD50,"rat, strain Fischer 344, males, by gavage, site: pituitary gland, anterior, lesion: adenoma, NOS, dosed 103 weeks, study length 104 weeks",333 mg/kg/day
same,TD50,"rat, strain Fischer 344, males, by gavage, site: preputial gland, lesion: adenoma, NOS + carcinoma, NOS, dosed 103 weeks, study length 104 weeks",1580 mg/kg/day
same,TD50,"rat, strain Fischer 344, males, by gavage, site: preputial gland, lesion: adenoma, NOS, dosed 103 weeks, study length 104 weeks",1710 mg/kg/day
same,TD50,"rat, strain Fischer 344, males, by gavage, site: subcutaneous tissue, lesion: fibroma + neurofibroma, dosed 103 weeks, study length 104 weeks",1900 mg/kg/day
same,TD50,"rat, strain Fischer 344, males, by gavage, site: subcutaneous tissue, lesion: fibroma, dosed 103 weeks, study length 104 weeks",2200 mg/kg/day
same,TD50,"rat, strain Fischer 344, males, by gavage, site: subcutaneous tissue, lesion: fibrosarcoma + fibroma + neurofibroma + sarcoma, NOS, dosed 103 weeks, study length 104 weeks",1730 mg/kg/day
same,TD50,"rat, strain Fischer 344, males, by gavage, site: testis, lesion: interstitial-cell tumor, dosed 103 weeks, study length 104 weeks",240 mg/kg/day
CC(Oc1cc(Cl)ccc1Cl)C(=O)O (centres undefined),carcinogen call,[1],negative (inactive)
same,carcinogen call,[2],negative (inactive)
same,carcinogen call,[3],negative (inactive)
same,carcinogen call,[4],negative (inactive)
same,carcinogen call,[5],negative (inactive)
same,carcinogen call,[6],negative (inactive)
same,carcinogen call,"mouse, strain B6C3F1, females, oral dosing, site: any site (literature study), lesion: one or several types, types not named, dosed 76 weeks, study length 76 weeks",negative (inactive)
same,carcinogen call,[7],negative (inactive)
same,carcinogen call,"mouse, strain B6C3F1, females, oral dosing, site: lung, lesion: several types, types named in the paper, dosed 76 weeks, study length 76 weeks",negative (inactive)
same,TD50,[8],10.5 mg/kg/day (inactive)
same,TD50,[9],36.7 mg/kg/day (inactive)
same,TD50,[10],36.7 mg/kg/day (inactive)
NC(=O)NC1NC(=O)NC1=O (centres undefined),carcinogen call,"rat, strain Fischer 344, females, in feed, site: liver, lesion: neoplastic nodule, dosed 106 weeks, study length 128 weeks",negative (inactive)
same,carcinogen call,"rat, strain Fischer 344, males, in feed, site: liver, lesion: neoplastic nodule, dosed 106 weeks, study length 128 weeks",negative (inactive)
COc1c2occc2cc2ccc(=O)oc12,TD50,"mouse, strain HRA/Skh (hairless), females, in feed, site: skin, lesion: several types, types named in the paper, dosed 52 weeks, study length 80 weeks",56.8 mg/kg/day (inactive)
same,TD50,"mouse, strain HRA/Skh (hairless), females, in feed, site: skin, lesion: squamous-cell carcinoma, dosed 52 weeks, study length 80 weeks",48.9 mg/kg/day (inactive)
same,TD50,"mouse, strain HRA/Skh (hairless), females, in feed, site: skin, lesion: squamous-cell papilloma, dosed 52 weeks, study length 80 weeks",151 mg/kg/day (inactive)
same,carcinogen call,"mouse, strain HRA/Skh (hairless), males, in feed, site: skin, lesion: several types, types named in the paper, dosed 52 weeks, study length 80 weeks",negative (inactive)
same,carcinogen call,"mouse, strain HRA/Skh (hairless), males, in feed, site: skin, lesion: squamous-cell carcinoma, in situ, dosed 52 weeks, study length 80 weeks",negative (inactive)
same,carcinogen call,"mouse, strain HRA/Skh (hairless), males, in feed, site: skin, lesion: squamous-cell carcinoma, dosed 52 weeks, study length 80 weeks",negative (inactive)
same,TD50,"mouse, strain HRA/Skh (hairless), males, in feed, site: skin, lesion: squamous-cell papilloma, dosed 52 weeks, study length 80 weeks",137 mg/kg/day (inactive)
same,TD50,"rat, strain Fischer 344, females, by gavage, site: any site (literature study), lesion: several types, types named in the paper, dosed 103 weeks, study length 105 weeks",45.6 mg/kg/day
same,TD50,"rat, strain Fischer 344, females, by gavage, site: liver, lesion: hepatocellular adenoma + hepatocellular carcinoma + neoplastic nodule, dosed 103 weeks, study length 105 weeks",5140 mg/kg/day
same,TD50,"rat, strain Fischer 344, females, by gavage, site: palate + tongue, lesion: squamous-cell papilloma, dosed 103 weeks, study length 105 weeks",333 mg/kg/day (inactive)
same,TD50,"rat, strain Fischer 344, males, by gavage, site: Zymbal's gland, lesion: carcinoma, NOS + squamous-cell carcinoma, dosed 103 weeks, study length 105 weeks",101 mg/kg/day
same,TD50,"rat, strain Fischer 344, males, by gavage, site: any site (literature study), lesion: several types, types named in the paper, dosed 103 weeks, study length 105 weeks",16.1 mg/kg/day
same,TD50,"rat, strain Fischer 344, males, by gavage, site: kidney + Zymbal's gland, lesion: tubular-cell adenoma + tubular-cell adenocarcinoma + carcinoma, NOS + squamous-cell carcinoma, dosed 103 weeks, study length 105 weeks",27.3 mg/kg/day
same,TD50,"rat, strain Fischer 344, males, by gavage, site: kidney, lesion: tubular-cell adenocarcinoma, dosed 103 weeks, study length 105 weeks",167 mg/kg/day
same,TD50,"rat, strain Fischer 344, males, by gavage, site: kidney, lesion: tubular-cell adenoma + tubular-cell adenocarcinoma, dosed 103 weeks, study length 105 weeks",32.4 mg/kg/day
same,TD50,"rat, strain Fischer 344, males, by gavage, site: kidney, lesion: tubular-cell adenoma, dosed 103 weeks, study length 105 weeks",43.2 mg/kg/day
same,TD50,"rat, strain Fischer 344, males, by gavage, site: lung, lesion: alveolar/bronchiolar adenoma + alveolar/bronchiolar carcinoma, dosed 103 weeks, study length 105 weeks",57.1 mg/kg/day
same,TD50,"rat, strain Fischer 344, males, by gavage, site: lung, lesion: alveolar/bronchiolar adenoma, dosed 103 weeks, study length 105 weeks",57.1 mg/kg/day
same,TD50,"rat, strain Fischer 344, males, by gavage, site: lung, lesion: alveolar/bronchiolar carcinoma, dosed 103 weeks, study length 105 weeks",488 mg/kg/day
same,TD50,"rat, strain Fischer 344, males, by gavage, site: pancreas, lesion: acinar-cell adenoma, dosed 103 weeks, study length 105 weeks",113 mg/kg/day
same,TD50,"rat, strain Fischer 344, males, by gavage, site: subcutaneous tissue, lesion: fibroma + sarcoma, NOS, dosed 103 weeks, study length 105 weeks",70.2 mg/kg/day
same,TD50,"rat, strain Fischer 344, males, by gavage, site: subcutaneous tissue, lesion: fibroma, dosed 103 weeks, study length 105 weeks",72.6 mg/kg/day
same,TD50,"rat, strain Fischer 344, males, by gavage, site: testis, lesion: interstitial-cell tumor, dosed 103 weeks, study length 105 weeks",14.6 mg/kg/day
O=C([O-])c1cc(N=Nc2ccc(-c3ccc(N=Nc4c(O)ccc(N=Nc5cc(S(=O)(=O)[O-])ccc5[O-])c4[O-])cc3)cc2)ccc1O.[Cu+2].[Na+].[Na+],TD50,"rat, strain Fischer 344, females, in feed, site: any site (literature study), lesion: several types, types named in the paper, dosed 13 weeks, study length 13 weeks",2.07 mg/kg/day
same,TD50,"rat, strain Fischer 344, females, in feed, site: liver, lesion: hepatocellular adenoma + hepatocellular carcinoma + neoplastic nodule, dosed 13 weeks, study length 13 weeks",2.07 mg/kg/day
same,TD50,"rat, strain Fischer 344, females, in feed, site: liver, lesion: hepatocellular carcinoma + neoplastic nodule, dosed 13 weeks, study length 13 weeks",2.07 mg/kg/day
same,carcinogen call,"rat, strain Fischer 344, males, in feed, site: any site (literature study), lesion: several types, types named in the paper, dosed 13 weeks, study length 13 weeks",negative (inactive)
